# Results as given in patent publication US20250333397A1 (REMIX THERAPEUTICS INC., priority 2021, published 2025).
# pIC50: −log10 of the molar value. Read-outs that look alike come from different tables or passages of the source.
# Experiments:
# Format in all cases: cell-based, human
# HTT mRNA = experiment: RT-qPCR splicing assay, HTT canonical (CJ) and alternative (AJ) junction mRNA; settings: Homo sapiens; for AC50: read-out: HTT AJ (AC50, increase in AJ mRNA)
# Outline: (§1)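 Cells: A673 (DMEM/10% FBS, plated 24 h before) or K562 (IMDM/10% FBS). Dosing: 11-pt 3-fold series, 10 uM top final, ≤0.25% DMSO, 24 h, 37 °C/5% CO2. Readout: RT-qPCR of CJ and AJ junctions, housekeeper-normalized, RQ = 2^(-ΔΔCt) vs DMSO.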
# MYB mRNA = experiment: RT-qPCR splicing assay, MYB canonical (CJ) and alternative (AJ) junction mRNA; settings: Homo sapiens; for AC50: read-out: MYB AJ (AC50, increase in AJ mRNA)
# Outline: as §1
# Target C mRNA = experiment: RT-qPCR splicing assay panel, Target C canonical junction (CJ) mRNA; settings: Homo sapiens, canonical junction (CJ) mRNA, RT-qPCR panel, Table 4A; read-out: Target C, decrease in CJ mRNA levels, IC50
# Outline: as §1
# SMN2 mRNA = experiment: RT-qPCR splicing assay panel, SMN2 canonical junction (CJ) mRNA; settings: Homo sapiens, canonical junction (CJ) mRNA, RT-qPCR panel, Table 4A; read-out: SMN2, decrease in CJ mRNA levels, IC50
# Outline: as §1
# [1] = 24 h, Table 3A, A673 or K562 cells, 24 h treatment
# [2] = 24 h, Table 3A, A673 or K562 cells, 24 h treatment, read-out: HTT CJ (IC50, decrease in CJ mRNA)
# [3] = canonical junction (CJ) mRNA, RT-qPCR panel, Table 4A, read-out: HTT, decrease in CJ mRNA levels, IC50
# [4] = 24 h, Table 3A, A673 or K562 cells, 24 h treatment, read-out: MYB CJ (IC50, decrease in CJ mRNA)
# [5] = canonical junction (CJ) mRNA, RT-qPCR panel, Table 4A, read-out: MYB, decrease in CJ mRNA levels, IC50
Structure (SMILES),AC50 (HTT mRNA; [1]) [µM],pIC50 (HTT mRNA; [2]),pIC50 (HTT mRNA; [3]),AC50 (MYB mRNA; [1]) [µM],pIC50 (MYB mRNA; [4]),pIC50 (MYB mRNA; [5]),pIC50 (Target C mRNA),pIC50 (SMN2 mRNA)
"COc1cc(-c2cc(O)c(-c3ccc(N4CC[C@@H](N[C@H]5C[C@@H](F)C5)C4)nn3)cc2F)cnn1 (racemic) [Compound 161, 4-fluoro-5-(6-methoxypyridazin-4-yl)-2-[6-(3-{[(1s,3s)-3-fluorocyclobutyl]amino}pyrrolidin-1-yl)pyridazin-3-yl]phenol]",0.1 to 1,6.00 to 7.00,6.00 to 7.00,0.1 to 1,6.00 to 7.00,6.00 to 7.00,6.00 to 7.00,> 7.00
CC(=O)c1cc(-c2ccc(-c3ccc(N4CCC(NC5CCC5)C4)nn3)c(O)c2)cnn1 (centres unmarked) [Compound 445],> 10,< 5.00,< 5.00,> 10,< 5.00,< 5.00,< 5.00,< 5.00
COc1cc(-c2ccc(-c3ccc(N4CC[C@H](N(CCF)C5CCC5)C4)nn3)c(O)c2)cnn1 [Compound 303],0.1 to 1,6.00 to 7.00,6.00 to 7.00,> 10,< 5.00,< 5.00,< 5.00,6.00 to 7.00
Oc1cc(-c2cnn3c2CCC3)ccc1-c1ccc(N2CCC(NC3CCC3)C2)nn1 (centres unmarked) [Compound 362],1 to 10,6.00 to 7.00,6.00 to 7.00,0.1 to 1,5.00 to 6.00,5.00 to 6.00,6.00 to 7.00,6.00 to 7.00
"COc1cc(-c2cc(O)c(-c3ccc(N4CC[C@@H](NC(C)(C)C)C4)nn3)cc2F)cnn1 [Compound 212, 2-{6-[(3R)-3-(tert-butylamino)pyrrolidin-1-yl]pyridazin-3-yl}-4-fluoro-5-(6-methoxypyridazin-4-yl)phenol]",< 0.1,> 7.00,> 7.00,< 0.1,> 7.00,> 7.00,> 7.00,> 7.00
Oc1cc(-n2cnnc2)c(F)cc1-c1ccc(N2CCC(NC3CCC3)C2)nn1 (centres unmarked) [Compound 315],1 to 10,5.00 to 6.00,5.00 to 6.00,> 10,< 5.00,< 5.00,< 5.00,5.00 to 6.00
"Oc1cc(-c2cn[nH]c2)c(F)cc1-c1ccc(N2CC[C@@H](NC3CC3)C2)nn1 [Compound 106, 2-{6-[(3R)-3-(cyclopropylamino)pyrrolidin-1-yl]pyridazin-3-yl}-4-fluoro-5-(1H-pyrazol-4-yl)phenol]",< 0.1,> 7.00,> 7.00,0.1 to 1,6.00 to 7.00,6.00 to 7.00,6.00 to 7.00,> 7.00
"COc1cc(-c2ccc(-c3ccc(N4CCC(CNC(C)(C)C)C4)nn3)c(O)c2)cnn1 (centres unmarked) [Compound 351, 2-(6-{3-[(tert-butylamino)methyl]pyrrolidin-1-yl}pyridazin-3-yl)-5-(6-methoxypyridazin-4-yl)phenol]",0.1 to 1,> 7.00,> 7.00,1 to 10,6.00 to 7.00,6.00 to 7.00,6.00 to 7.00,6.00 to 7.00
"Cc1ncc(-c2cc(O)c(-c3ccc(N4CC[C@H](NC5CCC5)C4)nn3)cc2F)o1 [Compound 229, 2-{6-[(3S)-3-(cyclobutylamino)pyrrolidin-1-yl]pyridazin-3-yl}-4-fluoro-5-(2-methyl-1,3-oxazol-5-yl) phenol]",< 0.1,> 7.00,> 7.00,0.1 to 1,6.00 to 7.00,6.00 to 7.00,6.00 to 7.00,> 7.00
Cc1nc(C)c(-c2cc(O)c(-c3ccc(N4CC[C@H](NC5CCC5)C4)nn3)cc2F)s1 [Compound 386],1 to 10,6.00 to 7.00,6.00 to 7.00,1 to 10,5.00 to 6.00,5.00 to 6.00,5.00 to 6.00,6.00 to 7.00
"COc1cc(-c2cc(O)c(-c3ccc(N4CC[C@@H](NC5CCC5)C4)nn3)cc2F)cnn1 [Compound 230, 2-{6-[(3R)-3-(cyclobutylamino)pyrrolidin-1-yl]pyridazin-3-yl}-4-fluoro-5-(6-methoxypyridazin-4-yl)phenol]",0.1 to 1,6.00 to 7.00,6.00 to 7.00,1 to 10,5.00 to 6.00,5.00 to 6.00,5.00 to 6.00,> 7.00
"COc1cc(-c2ccc(-c3ccc(N4CC[C@@H](NC5(C)CCC5)C4)nn3)c(O)c2)cnn1 [Compound 287, (R)-5-(6-methoxypyridazin-4-yl)-2-(6-(3-((1-methylcyclobutyl)amino)pyrrolidin-1-yl)pyridazin-3-yl)phenol]",< 0.1,> 7.00,> 7.00,< 0.1,> 7.00,> 7.00,> 7.00,> 7.00
COc1nccc(-c2ccc(-c3ccc(N4CCC(NCC5CC5)C4)nn3)c(O)c2)n1 (centres unmarked) [Compound 368],0.1 to 1,6.00 to 7.00,6.00 to 7.00,1 to 10,5.00 to 6.00,5.00 to 6.00,5.00 to 6.00,6.00 to 7.00
"Cc1ncc(-c2cc(O)c(-c3ccc(N4CC[C@](C)(NCC5CC5)C4)nn3)cc2F)s1 (single isomer, unassigned) [Compound 400]",< 0.1,> 7.00,> 7.00,0.1 to 1,6.00 to 7.00,6.00 to 7.00,> 7.00,> 7.00
COc1cc(-c2ccc(-c3ccc(N4CCC(N[C@H]5C[C@H](O)C5)C4)nn3)c(O)c2)cnn1 (some centres unmarked) [Compound 447],< 0.1,> 7.00,> 7.00,0.1 to 1,6.00 to 7.00,6.00 to 7.00,6.00 to 7.00,> 7.00
"Cc1ncc(-c2cc(O)c(-c3ccc(N4CC[C@@H](NC5CCC5)C4)nn3)cc2F)o1 [Compound 228, 2-{6-[(3R)-3-(cyclobutylamino)pyrrolidin-1-yl]pyridazin-3-yl}-4-fluoro-5-(2-methyl-1,3-oxazol-5-yl)phenol]",0.1 to 1,6.00 to 7.00,6.00 to 7.00,0.1 to 1,6.00 to 7.00,6.00 to 7.00,6.00 to 7.00,> 7.00
Cc1nc(F)c(-c2cc(O)c(-c3ccc(N4CCC(NC5CCC5)C4)nn3)cc2F)s1 (centres unmarked) [Compound 378],0.1 to 1,6.00 to 7.00,6.00 to 7.00,1 to 10,5.00 to 6.00,5.00 to 6.00,5.00 to 6.00,6.00 to 7.00
"COc1cc(-c2ccc(-c3ccc(N4CC[C@H](NC(C)(C)C)C4)nn3)c(O)c2)ncn1 [Compound 283, 2-{6-[(3S)-3-(tert-butylamino)pyrrolidin-1-yl]pyridazin-3-yl}-5-(6-methoxypyrimidin-4-yl)phenol]",< 0.1,> 7.00,> 7.00,0.1 to 1,6.00 to 7.00,6.00 to 7.00,> 7.00,> 7.00
"COc1cc(-c2ccc(-c3ccc(N4CC[C@H](N[C@H]5C[C@@H](F)C5)C4)nn3)c(O)c2)ncn1 [Compound 407, 5-(6-methoxypyrimidin-4-yl)-2-{6-[(3R)-3-{[(1s,3s)-3-fluorocyclobutyl]amino}pyrrolidin-1-yl]pyridazin-3-yl}phenol]",0.1 to 1,6.00 to 7.00,6.00 to 7.00,0.1 to 1,6.00 to 7.00,6.00 to 7.00,6.00 to 7.00,6.00 to 7.00
"COc1cc(-c2ccc(-c3ccc(N4CC[C@@H](N(CCF)C5CCC5)C4)nn3)c(O)c2)cnn1 [Compound 313, 2-{6-[(3R)-3-[cyclobutyl(2-fluoroethyl)amino]pyrrolidin-1-yl]pyridazin-3-yl}-5-(6-methoxypyridazin-4-yl)phenol]",1 to 10,6.00 to 7.00,6.00 to 7.00,1 to 10,< 5.00,< 5.00,< 5.00,6.00 to 7.00
Cc1ncc(-c2cc(O)c(-c3ccc(N4CC[C@@H](NCC5CC5)C4)nn3)cc2F)s1 [Compound 392],< 0.1,> 7.00,> 7.00,< 0.1,> 7.00,> 7.00,> 7.00,> 7.00
"Cc1cc(-c2ccc(-c3ccc(N4CC[C@@H](NC5CCC5)C4)nn3)c(O)c2)cnn1 [Compound 292, 2-{6-[(3R)-3-(cyclobutylamino)pyrrolidin-1-yl]pyridazin-3-yl}-5-(6-methylpyridazin-4-yl)phenol]",> 10,< 5.00,< 5.00,> 10,< 5.00,< 5.00,< 5.00,5.00 to 6.00
